From patent US9789096B2, “Methods and compositions for selective and targeted cancer therapy” (Board of Regents of the University of Texas System, priority 2013, dated 2017)
Read-outs that look alike come from different tables or passages of the source.

How the values were obtained:
Format in all cases: cell-based, human
[1] = system: HBEC30KT; assay: Cell viability (ATP, Cell Titer Glo, 4 days), HBEC30KT; conditions: Homo sapiens
Description: (§1) FIG. 6A. […] Cell viability is plotted vs. compound concentration. Compound was added to cells plated at 15% confluence in 96-well plates in RPMI-1640 media supplemented with 5% Fetal Bovine Serum and 2 mM L-Glutamine. After 4 days of incubation, ATP levels were measured using Cell Titer Glo (Promega). Data are presented as the average of 2 replicates ±SEM.
(§2) Selectivity may be measured by the half maximal inhibitory concentration (IC50), which, as used herein, is a measure of the effectiveness of a compound in killing cells. This quantitative measure indicates how much of a particular compound is needed to kill a particular cell population by half (e.g., as indicated by the amount of ATP). […] The IC50 can be determined by constructing a dose-response curve. The lower the IC50, the higher the potency, and the greater the difference between IC50 values for different cell lines (e.g., sensitive lines vs. insensitive lines, and sensitive lines vs. normal lines) the greater the selectivity. […]

[2] = system: H1819; assay: Cell viability dose-response, H1819; conditions: Homo sapiens
In short: (§3)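 Cells plated at 15% confluence in RPMI-1640 with 5% FBS and 2 mM L-glutamine, treated with compound in a 12-point, 3-fold dilution series from 50 micromolar, in duplicate. ATP measured by Cell Titer Glo after 4 days; IC50 taken from the dose-response curve.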

[3] = system: H2073; assay: Cell viability dose-response, H2073; conditions: Homo sapiens, NCI-H2073, Tables 3 and 4; read-out: IC50 (uM) vs indicated non-small cell lung cancer cell line H2073
Description: as §1, §2
(§4) With this information, we synthesized and tested a series of small molecules derived in conception from the oxalamide and chromone scaffold including N-acyl ureas, as shown in Tables 6-8. Each compound was tested in a 12-point dose-response study starting at 50 micromolar and decreasing in 3-fold increments to sub-nanomolar concentrations, in duplicate. Additionally, one or more additional cell line was tested in the same way.

[4] = system: H2122; assay: Cell viability dose-response, H2122
In short: as §3

[5] = system: H2009; assay: Cell viability dose-response, H2009; conditions: Homo sapiens, NCI-H2009; Tables 3 and 4; read-out: IC50 (uM) vs indicated non-small cell lung cancer cell line H2009
In short: (§5)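 IC50 values derive from 12-point, 3-fold dilution curves starting at 50 micromolar, run in duplicate. ATP content was read by CellTiter-Glo after 4 days of compound treatment. Cells were plated at 15% confluence in RPMI-1640 containing 5% FBS and 2 mM L-glutamine.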

[6] = system: HCC4017; assay: Cell viability dose-response, HCC4017; conditions: read-out: IC50 (uM) vs indicated non-small cell lung cancer cell line HCC4017
Description: as §1, §2, §4

[7] = system: HCC44; assay: Cell viability dose-response, HCC44; conditions: read-out: IC50 (uM) vs indicated non-small cell lung cancer cell line HCC44
In short: as §5

[8] = Tables 3 and 4, read-out: HBEC30KT IC50
[9] = NCI-H1819, Tables 3 and 4, read-out: IC50 (uM) vs indicated non-small cell lung cancer cell line H1819
[10] = Homo sapiens, NCI-H2122, Tables 3 and 4, read-out: IC50 (uM) vs indicated non-small cell lung cancer cell line H2122
[11] = Homo sapiens, HCC4017, Tables 3 and 4
[12] = Homo sapiens, HCC44, Tables 3 and 4
[13] = 12-point dose-response starting at 50 micromolar, 3-fold increments, in duplicate, read-out: toxicity data, HBEC30KT
[14] = NCI-H1819, 12-point dose-response starting at 50 micromolar, 3-fold increments, in duplicate, read-out: toxicity data, H1819
[15] = Homo sapiens, NCI-H2122, 12-point dose-response starting at 50 micromolar, 3-fold increments, in duplicate, read-out: toxicity data, H2122

Structure (SMILES)	IC50 [1, 8] [µM]	IC50 [2, 9] [µM]	IC50 [3] [µM]	IC50 [4, 10] [µM]	IC50 [5] [µM]	IC50 [1, 13] [µM]	IC50 [2, 14] [µM]	IC50 [4, 15] [µM]	also measured
COc1ccc2nc(NC(=O)c3ccc(Br)cc3)sc2c1 [SW000931]	360	308	2.33	2.62					
COc1ccc(C(=O)Nc2nc3ccccc3s2)cc1 [SW003087]	100	37.4	11.7	2.62	31.3				
COC(=O)c1ccc(C(=O)Nc2nc3cc(N)ccc3s2)cc1 [SW004400]	74.3	54.6	182	297	77.5				
O=C(Nc1ccc(F)cc1)c1sc2ccccc2c1Cl [SW006505]	63.9			1.7					IC50 [6, 11]: 262 µM; IC50 [7, 12]: 0.657 µM
COc1ccc2nc(NC(=O)c3ccc(F)cc3)sc2c1 [SW008027]	32.2	67.3	5.1	0.899	24.6				
O=C(Nc1cccc(NC(=O)c2sc3ccccc3c2Cl)c1)c1ccco1 [SW023008-2]	82.5			1.27					IC50 [6, 11]: 809 µM; IC50 [7, 12]: 105 µM
O=C(Nc1cccc(NC(=O)c2sc3ccccc3c2Cl)c1)c1cccc(Cl)c1 [SW023441-2]	31.8								IC50 ([4]; Tables 3 and 4, read-out: IC50 (uM) vs indicated non-small cell lung cancer cell line H2122): 0.473 µM; IC50 ([6]; Tables 3 and 4): 46 µM; IC50 ([7]; Tables 3 and 4): 27.7 µM
NC(=O)c1ccccc1NC(=O)c1sc2ccccc2c1Cl [SW119800]	85.4			2.66					IC50 [6, 11]: 467 µM; IC50 [7, 12]: 206 µM
O=C(O)c1sc2ccccc2c1Cl [SW138238]	4950	1170			179				
O=C(Nc1ccc(NC(=O)c2sc3ccccc3c2Cl)cc1)c1ccco1 [SW163400]	69.3			0.897					IC50 [7, 12]: 723 µM
COc1ccc2nc(NS(=O)(=O)c3ccc([N+](=O)[O-])cc3)sc2c1 [SW166933]	4950	55.2	55.4	490					
O=C(Nc1ccccc1N1CCCC1)c1sc2ccccc2c1Cl [SW174698]	4950			5.12					IC50 [6, 11]: 403 µM; IC50 [7, 12]: 3.06 µM
Cc1ccc(NC(=O)c2sc3ccccc3c2Cl)c(F)c1 [SW202551]				1.36					IC50 [6, 11]: 390 µM; IC50 [7, 12]: 1.42 µM
COc1ccc(C(=O)Nc2nc3cc(N)ccc3s2)cc1 [SW202739]	250	132	126	114	137				
Cc1cc2sc(N)nc2cc1[N+](=O)[O-] [SW202740]	129	82.5	114		111				
Nc1ccc2sc(NC(=O)c3ccccc3)nc2c1 [SW202741]	13	11.9	9.79	8.13	8.42				
COc1ccc2nc(NC(=O)c3ccccc3)sc2c1 [SW202743]	22.3	19.8	7.04	0.538	20.6				
COc1ccc2nc(NC(=O)c3cccc(C)c3)sc2c1 [SW202744]	36.2	53.5	25.6	1.16	24.8				
COc1ccc(C(=O)Nc2nc3ccc(OC)cc3s2)cc1 [SW202745]	336	64.3	2.12	1.09					
COc1cccc(C(=O)Nc2nc3ccc(OC)cc3s2)c1 [SW202747]	29.5	20.5	10.3	0.306	21.2				
COc1ccc2nc(NC(=O)Cc3ccccc3)sc2c1 [SW202749]	234	57.6	70.4	60.4	75.2				
COc1ccc2nc(NS(=O)(=O)c3ccccc3)sc2c1 [SW202750]	127	144	97.6						
COc1ccc2nc(NC(=O)CCc3ccccc3)sc2c1 [SW202751]	376	995							

Structure (SMILES)	IC50 [1, 8] [µM]	IC50 [2, 9] [µM]	IC50 [3] [µM]	IC50 [4, 10] [µM]	IC50 [5] [µM]	IC50 [1, 13] [µM]	IC50 [2, 14] [µM]	IC50 [4, 15] [µM]	also measured
COc1ccc2nc(NC(=O)c3ccc([N+](=O)[O-])o3)sc2c1 [SW202753]	20	18.2	6.25	4.36	13.4				
O=S(=O)(Nc1nc2ccccc2s1)c1ccc(C(F)(F)F)cc1 [SW202754]	198	30.2	24.8	35.4	32.7				
Cc1cccc(C(=O)Nc2nc3ccccc3s2)c1 [SW202755]	106	47.8	25.1	0.734	53.9				
CCOC(=O)c1c(NC(=O)c2ccccc2)sc2c1CCCC2 [SW202858-1]	48.8			2.69	38.6				
COc1ccccc1CCNC(=O)C(=O)Nc1ccc(Cl)cc1 [SW207004-1]						49.5	≥ 49.5	≥ 49.5	
O=C(NCCc1ccc(Br)cc1)C(=O)Nc1ccc(Cl)cc1 [SW207005-1]						49.5	≥ 49.5	≥ 49.5	
Cc1cccc(CCNC(=O)C(=O)Nc2ccc(Cl)cc2)c1 [SW207006-1]						49.5	≥ 49.5	≥ 49.5	
COc1ccc(CCNC(=O)C(=O)Nc2ccc(Cl)cc2)cc1OC [SW207007-1]						49.5	≥ 49.5	≥ 49.5	
O=C(NCCc1ccc(Cl)cc1)C(=O)Nc1ccc(Cl)cc1 [SW207008-1]						49.5	≥ 49.5	≥ 49.5	
COc1ccc(CCNC(=O)C(=O)Nc2ccccc2Br)cc1 [SW207009-1]						49.5	≥ 49.5	≥ 49.5	
COc1ccc(CCNC(=O)C(=O)Nc2ccc(OC(F)(F)F)c([N+](=O)[O-])c2)cc1 [SW207010-1]						49.5	≥ 49.5	0.331	
COc1ccc(CCNC(=O)C(=O)Nc2cc(Cl)ccc2OC)cc1 [SW207011-1]						49.5	≥ 49.5	≥ 49.5	
COc1ccc(CCNC(=O)C(=O)Nc2cc(C(F)(F)F)c(Br)c(C(F)(F)F)c2)cc1 [SW207012-1]						18	≥ 49.5	11.8	
COc1ccc(CCNC(=O)C(=O)Nc2ccc(Cl)cc2C(F)(F)F)cc1 [SW207013-1]						49.5	≥ 49.5	≥ 49.5	
COc1ccc(CCNC(=O)C(=O)Nc2ccc(C)c(Br)c2)cc1 [SW207014-1]						49.5	≥ 49.5	0.89	
COc1ccc(CCNC(=O)C(=O)Nc2ccc(C(F)(F)F)c(Br)c2)cc1 [SW207015-1]						44.1	≥ 49.5	0.456	
CCOc1cccc(NC(=O)C(=O)NCCc2ccc(OC)cc2)c1 [SW207016-1]						49.5	≥ 49.5	23.8	
COc1ccc(CCNC(=O)C(=O)Nc2ccc(C#N)cc2)cc1 [SW207017-1]						49.5	≥ 49.5	0.712	
COc1ccc(CCNC(=O)C(=O)NCc2ccc(OC)cc2)cc1 [SW207018-1]						49.5	≥ 49.5	≥ 49.5	
COc1ccc(CNC(=O)C(=O)NCc2ccc(OC)cc2)cc1 [SW207019-1]						49.5	≥ 49.5	≥ 49.5	
COc1ccc(CCNC(=O)C(=O)Nc2ccc(C)c(Cl)c2)cc1 [SW207020-1]						49.5	≥ 49.5	0.602	
COc1ccc(CCNC(=O)C(=O)Nc2cccc(C#N)c2)cc1 [SW207021-1]						49.5	≥ 49.5	0.407	
